Patent US20090264421A1 (priority 2007, published 2009)

Tests used:
[1] = system: freshly collected sorted patient CD138+ myeloma cells; details: ex vivo, 24 hours, trypan blue exclusion
Protocol: FIG. 3. […] Survival indicated in A-E was assessed using a trypan blue exclusion assay, counting viable cells using a hemocytometer after 24 hour exposure to the indicated drugs and drug concentrations.
Patient bone marrow leukocytes were divided into myeloma (CD138+) and non-myeloma/normal leukocyte (CD138−) fractions employing sorting using magnetic bead technology in kit form (MACS CD138 microbeads, Miltenyi Biotech, Auburn, Calif.). Sorted cells were plated in a 96-well tissue culture plate at a concentration of 5×10^5 cells and dosed with indicated drug concentrations for 24 hours. Survival was assessed using a trypan blue exclusion assay.

normal plasma cells = experiment: Survival of normal plasma cells and matched normal leucocytes, trypan blue exclusion; type: cell-based, human; details: 24 h exposure
Protocol: A and B. Effects of chaetocin on survival of MGUS plasma cells and matched patient normal leucocytes from two patients (assessed by trypan blue exclusion assay, 24 h chaetocin exposures). C and D. Effects of chaetocin on survival of normal plasma cells and matched patient normal leucocytes from two patients (assessed by trypan blue exclusion assay, 24 h chaetocin exposures).

thioredoxin = molecular target: T1, thioredoxin (Escherichia coli, UniProt P0AA25); experiment: Thioredoxin activity assay (insulin precipitation); type: biochemical, E. coli; details: higher chaetocin concentrations; read-out: IC50, Trx activity inhibition
T1 construct: purchased Promega (Madison, Wis.)
T1 sequence (P0AA25 whole entry): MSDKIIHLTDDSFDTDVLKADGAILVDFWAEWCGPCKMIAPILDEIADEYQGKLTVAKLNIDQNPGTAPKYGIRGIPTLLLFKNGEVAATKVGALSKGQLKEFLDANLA
Protocol: (§1) HeLa cells were obtained from ATCC.
Thioredoxin Activity Assay: The 100 μL reaction contained 100 mM potassium phosphate (pH 7.0), 2 mM EDTA, 0.13 mM bovine insulin, 3.9 μM E. coli thioredoxin and chaetocin as indicated. The reaction was initiated by addition of 0.33 mM DTT, and turbidity was monitored at 620 nm in a plate reader. The initial linear rate was calculated based on the slope of the line after an increase in absorbance (indicating precipitation of insulin) started to occur.

TrxR1 = molecular target: T2, TrxR1 (Rattus norvegicus, UniProt O89049); type: biochemical; set-up: rat liver thioredoxin reductase; purchased Sigma (St. Louis, Mo.); details: mass spectroscopy; data not shown
T2 sequence (O89049 1-499): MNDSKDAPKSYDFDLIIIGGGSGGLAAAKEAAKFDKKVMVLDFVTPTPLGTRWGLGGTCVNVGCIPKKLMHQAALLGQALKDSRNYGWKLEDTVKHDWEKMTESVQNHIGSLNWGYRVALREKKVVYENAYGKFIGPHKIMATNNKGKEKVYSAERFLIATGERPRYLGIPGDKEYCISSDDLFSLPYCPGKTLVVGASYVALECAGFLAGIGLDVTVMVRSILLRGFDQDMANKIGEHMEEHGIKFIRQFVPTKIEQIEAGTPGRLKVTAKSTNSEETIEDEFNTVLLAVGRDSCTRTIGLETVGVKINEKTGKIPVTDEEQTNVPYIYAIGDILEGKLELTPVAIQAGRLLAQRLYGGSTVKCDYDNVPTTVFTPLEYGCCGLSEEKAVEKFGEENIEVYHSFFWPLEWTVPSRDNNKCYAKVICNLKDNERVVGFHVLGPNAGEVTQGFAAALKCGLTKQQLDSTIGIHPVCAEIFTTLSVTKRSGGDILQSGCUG
Protocol: Samples were allowed to react at 22° C. for 15 min and then processed for analysis by desalting and fractionating using C18 ZipTips (Millipore Corporation, Bedford, Mass.). For the DTT/chaetocin reaction, the reaction proceeded for 20 min and was then spun down to remove precipitated insulin before loading onto ZipTips. ZipTips were conditioned with 60% acetonitrile:39% water:1% acetic acid and equilibrated with 1% acetic acid. Samples were acidified with glacial acetic acid and loaded onto an equilibrated ZipTip and washed with 1% acetic acid. Fractions were step-eluted off the ZipTip using 10 μl of 1% acetic acid in water containing 20, 30, 40, or 60% acetonitrile. Collected fractions were injected by loop injection (2 μl) directly into the mass spectrometer using a mobile phase of 30% acetonitrile:69% water:1% acetic acid at 5 μl/min. Mass spectra were collected on an Agilent Technologies LC/MSD-TOF mass spectrometer in positive electrospray ionization mode over a m/z range of 400 to 1500. The capillary, fragmentor, skimmer, and OCT RF voltages (3500, 185, 60, 200 volts, respectively) were optimized to enhance signal and minimize instrument fragmentation.

A549 cells = type: cell-based, human; details: within 1-2 minutes
Source text: Measurement of intra- and extracellular chaetocin levels: Tumor cells treated with indicated chaetocin concentrations were washed twice with ice cold PBS, immediately solubilized in 0.5 M perchloric acid, and evaluated “real time” via HPLC using Beckman System Gold Nouveau Software with a dual pump 125 gradient pump system, 507e autosampler, 168 diode array detector, and Beckman Ultrasphere ODS column (4.6 mm×[…]×7 μm) using the following elution profile: 100% water to 100% methanol linear gradient over 40 minutes, followed by a 10 minute period of elution with 100% methanol. Quantitation was accomplished using a standard curve of peak areas derived from analogous HPLC data using varying concentrations of chaetocin.

thioredoxin reductase = molecular target: T3, thioredoxin reductase (Rattus norvegicus, UniProt O89049); experiment: Thioredoxin reductase activity assay (gel-based oxidation state of thioredoxin method); type: biochemical
T3 construct: rat liver thioredoxin reductase; purchased Sigma (St. Louis, Mo.); host or cells: rat liver
T3 sequence (O89049 1-499): T2 sequence (O89049 1-499)
Protocol: as §1
Thioredoxin Reductase Activity Assay (gel-based oxidation state of thioredoxin method): Reduction of thioredoxin by thioredoxin reductase was measured by the decrease in electrophoretic mobility caused by covalent modification of thioredoxin (by AMS) when the disulfide is reduced. […] At the indicated time, a 5 μL sample was removed and immediately added to 5 μL of 30 mM AMS in TE buffer (pH 7.5). The AMS was allowed to react (15 minutes at 22° C.) with reduced thioredoxin sulfhydryl groups, then the samples were mixed with non-reducing sample buffer and were electrophoresed on 18% Tris-HCl SDS-PAGE gels. The gels were stained with Coomassie blue and bands were imaged and quantitated using a Syngene InGenius gel documentation system (Frederick, Md.).

[2] = Tolerability of IP chaetocin in mice; type: in vivo, mouse; details: 0.6 mg/kg and 0.25 mg/kg IP twice weekly for two weeks
Protocol: Subsequent in vivo work in mice utilized the following formulation: 0.06 mg/mL chaetocin in 20% PEG400 and 79.14% […] NaCl with 0.86% DMSO as a cosolvent. This system retains in vitro activity in cell culture models.

CN1C(=O)[C@@]23C[C@]4([C@]56C[C@@]78SS[C@@](CO)(C(=O)N7[C@H]5Nc5ccccc56)N(C)C8=O)c5ccccc5N[C@@H]4N2C(=O)[C@]1(CO)SS3 [chaetocin]
effect on matched CD138- normal bone marrow leukocytes [1]: largely sparing
effect on granulocytes and other leukocytes (normal plasma cells): largely sparing granulocytes and other leukocytes
IC50 (thioredoxin): ~90 µM
covalent adduct with TrxR1 (TrxR1): no evidence of a covalent chaetocin-TrxR1 adduction
intracellular accumulation relative to applied extracellular concentration (A549 cells): 10 fold
inhibition of reduction of thioredoxin by thioredoxin reductase (thioredoxin reductase; gel-based, AMS modification): inhibit the ability of TrxR1 to reduce Trx
IC50 (thioredoxin reductase; initial linear portion of the reaction, read-out: IC50, reduction of thioredoxin by thioredoxin reductase): 4 µM
GI toxicity [2]: some GI toxicity was noted
tolerability [2]: tolerated
